Values after ≈ are worked out from the molar mass of the structure shown. Read-outs that look alike come from different tables or passages of the source. Numbered stars: 1 amine (or outer) side, 2 acyl side, 3 side chain; on linkers, the order of the positions; unused ones are H or OH. Bridge positions count the residues as written; N and C are the ends. Square brackets hold non-standard residues; d marks the D form. Peptide text beside a SMILES is read from it. * marks the point of attachment. Phe(3-Me) = Cc1cccc(C[C@H](N)C(=O)O)c1; NH(4-Cl-2-F-phenyl) = Fc1cc(Cl)ccc1N*; Pro(4R-Me) = C[C@H]1CN[C@H](C(=O)O)C1; Hyp = O=C(O)[C@@H]1C[C@@H](O)CN1; NH(4-Cl-phenyl) = Clc1ccc(N*)cc1; NH(4-Me-phenyl) = Cc1ccc(N*)cc1; NH(4-F-phenyl) = Fc1ccc(N*)cc1; aThr = C[C@H](O)[C@H](N)C(=O)O; NH(2-F-phenyl) = Fc1ccccc1N*; Pip = O=C(O)[C@@H]1CCCCN1; X7 = Clc1ccc(N*)c(Cl)c1; CO = O=C([*:1])[*:2]
Assays:
[1] = system: MRSA NRS70; assay: Minimal inhibitory concentration, microbroth dilution; format: cell-based; conditions: Staphylococcus aureus
Protocol: (§1) Minimal inhibitory concentrations (“MICs”) were determined using the microbroth dilution method according to Clinical Laboratory Standards Institute (CLSI; National, C.F. C. L. S., Methods for Dilution Antimicrobial Susceptibility Tests for Bacteria Grow aerobically-Seventh Edition: Approved Standard M7-A7, CLSI, Wayne, Pa., USA, 2008) and were read by visual inspection. Two fold serial dilutions of test compound in 100 μL of the appropriate broth media were first prepared in 96-well round bottom microtiter plates (Nalgene Nunc International, Rochester, N.Y., USA). An equivalent volume (100 μL) of bacterial broth inocula containing approximately 10^5 bacterial cfu/mL was added to each well to give final concentrations of test compound starting at 200 μM. The plates were then incubated aerobically at 37° C. All strains were incubated overnight. After incubations, in all cases the MIC was recorded as the lowest concentration of drug that prevented bacterial growth. The bacterial strains for which MIC was determined as described in Table 4.

[2] = system: S. aureus USA 300; assay: as above; format: cell-based; conditions: Staphylococcus aureus
Protocol: as §1

[3] = system: E. faecails; assay: as above; format: cell-based; conditions: Enterococcus faecalis
Protocol: as §1

[4] = system: S. aureus ATCC 29213; assay: as above; format: cell-based; conditions: Staphylococcus aureus
Protocol: as §1

[5] = system: S. aureus ΔClpP; assay: as above; format: cell-based, Staphylococcus aureus; conditions: MIC; ClpP inactivated
Protocol: as §1

[6] = biological target: T1, S. aureus ClpP (Sa-ClpP) (Staphylococcus aureus, UniProt Q2G036); assay: Casein-BODIPY digestion assay (ClpP activation); format: biochemical
T1 construct: made in house; host or cells: E. coli BL21 (DE3)
Protocol: The compounds were assayed in a casein digestion assay in order to determine their effect on ClpP activation. Briefly, the assay was carried out using S. aureus ClpP (“Sa-ClpP”) overexpressed in E. coli BL21 (DE3) and purified in a two-step process. Purity of the protein was assessed through SDS PAGE analysis. EC50 evaluations were conducted in triplicate in a 20 μl assay format using a method adapted from Maurizi et al. (Methods Enzymol. (1994) 244:314-331). Each well contained 10 μM saClpP, 25 μg/ml BODIPY FL casein (Invitrogen Corporation, San Diego, Calif.), and test compound in concentrations ranging between 0-1000 μM in assay buffer (50 mM Tris pH 8, 200 mM KCl, and 1 mM TCEP). The reaction took place at 37° C. Fluorescence (excitation 485 nm; emission 528 nm) was measured in five minute intervals over a 45 min period using a BioTek HT fluorescence microplate reader (BioTek Instruments, Inc., Winooski, Vt.). Velocity of each reaction was calculated and data was fit to a dose response curve using GraphPad Prism® software (GraphPad Software, Inc., La Jolla, Calif.). EC50 is the effective concentration of compound which causes 50% activation of S. aureus ClpP in the foregoing BODIPY FL casein assay.
Alternatively, the assay was carried out using EnzCheck Protease Assay (Molecular Probes, Catalog # E6638). The assay was performed in black 384 well, flat bottom, low volume plates (Greiner Bio-One, Monroe, N.C., catalog #784076). 10 μL of Tris.HCl buffer, pH 8.0 with 0.01% Triton X-100 was pipetted into each well using a Well-Mate (Thermo Scientific, Waltham, Mass.). 0.4 μL test compounds or controls (2% DMSO v/v) were added to each well using a Biomek FX liquid handling robot (Beckman Coulter, Indianapolis, Ind.). After addition of test compounds and controls, 10 μL of master mix containing 2 μM Sa-ClpP and 2 μM substrate (Bodipy-FL labeled casein) in Tris.HCl buffer, pH 8.0 with 0.01% (v/v) Triton X-100, was pipetted into each well. All assays were performed in triplicate, under linear velocity conditions. Increase in fluorescent signal following activation of Sa-ClpP by test compounds and controls was measured over time period of 30 mins using filters with excitation at 485±15 nm and emission at 520±25 nm on a PHERAstar FS Multilabel reader (BMG, Cary, N.C.). Instrument gains and enzyme linear velocity conditions were determined and validated using ADEP4, a known Sa-ClpP activator. Data analysis was done by measuring rate of casein degradation over time (slopes). Computed degradation rates (slopes) were normalized to positive (ADEP4) or negative (DMSO) controls. Using nonlinear regression curve fitting EC50 values and % activation were determined using the equation “log [agonist] vs. Response-variable slope (four parameters)-symmetrical” in the program Prism 6 (GraphPad Software, La Jolla, Calif. USA, www.graphpad.com).

[7] = MIC, read-out: Minimal Inhibitory Concentrations (μM) MRSA NRS70
[8] = USA300, MIC, read-out: Minimal Inhibitory Concentrations (μM) S. aureus USA 300
[9] = MIC, read-out: Minimal Inhibitory Concentrations (μM) E. faecails
[10] = ATCC29213, MIC, read-out: Minimal Inhibitory Concentrations (μM) S. aureus ATCC 29213
[11] = read-out: Minimal Inhibitory Concentrations (μM) MRSA NRS70, MIC
[12] = USA300, read-out: Minimal Inhibitory Concentrations (μM) S. aureus USA 300, MIC
[13] = read-out: Minimal Inhibitory Concentrations (μM) E. faecails, MIC
[14] = ATCC29213, read-out: Minimal Inhibitory Concentrations (μM) S. aureus ATCC 29213, MIC

T1 sequence (Q2G036 whole entry): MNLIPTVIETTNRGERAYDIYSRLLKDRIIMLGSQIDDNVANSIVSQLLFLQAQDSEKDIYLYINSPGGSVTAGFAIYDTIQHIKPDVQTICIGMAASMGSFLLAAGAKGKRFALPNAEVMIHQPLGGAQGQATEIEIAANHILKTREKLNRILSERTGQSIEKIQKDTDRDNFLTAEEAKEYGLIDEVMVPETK

Compound | Minimal Inhibitory Concentrations (μM) S. aureus ΔClpP [5] [µM] | MIC [1, 11] [µM] | MIC [2, 12] [µM] | MIC [3, 13] [µM] | MIC [4, 14] [µM] | EC50 [6] [nM] | also measured
Cc1cccc(C[C@H](NC(=O)Nc2ccc(Cl)cc2F)C(=O)N[C@H]2COC(=O)[C@@H]3CCCN3C(=O)[C@H](C)NC(=O)[C@@H]3CCCCN3C(=O)[C@@H]3C[C@@H](O)CN3C2=O)c1 [Compound 48, (S)-2-(3-(4-CHLORO-2-FLUOROPHENYL)UREIDO)-N-((6S,8AS,14AS,16R,20S,23AS)-16-HYDROXY-6-METHYL-5,8,14,19,23-PENTAOXOOCTADECAHYDRO-1H,5H,14H,19H-PYRIDO[2,1-I]DIPYRROLO[2,1-C:2′,1′-L][1]OXA[4,7,10,13]TETRAAZACYCLOHEXADECIN-20-YL)-3-(M-TOLYL)PROPANAMIDE] |  |  |  |  |  |  | MIC [1, 7]: 1.25 µM (≈ 1.02 µg/mL); MIC [2, 8]: 1.25 µM (≈ 1.02 µg/mL); MIC [3, 9]: 2.5 µM (≈ 2.03 µg/mL); MIC [4, 10]: 1.25 µM (≈ 1.02 µg/mL)
Cc1cccc(C[C@H](NC(=O)Nc2ccc(Cl)cc2F)C(=O)N[C@@H]2C(=O)N3C[C@H](O)C[C@H]3C(=O)N3CCCC[C@H]3C(=O)N[C@@H](C)C(=O)N3CCC[C@H]3C(=O)O[C@H]2C)c1 [Compound 50, (S)-2-(3-(4-CHLORO-2-FLUOROPHENYL)UREIDO)-N-((6S,8AS,14AS,16R,20S,21S,23AS)-16-HYDROXY-6,21-DIMETHYL-5,8,14,19,23-PENTAOXOOCTADECAHYDRO-1H,5H,14H,19H-PYRIDO[2,1-I]DIPYRROLO[2,1-C:2′,1′-L][1]OXA[4,7,10,13]TETRAAZACYCLOHEXADECIN-20-YL)-3-(M-TOLYL)PROPANAMIDE] ({NH(4-Cl-2-F-phenyl)-CO}-[Phe(3-Me)][aThr][Hyp][Pip]AP; ester 2-C) | >20 |  |  |  |  |  | MIC [1, 7]: 0.313 µM (≈ 0.259 µg/mL); MIC [2, 8]: 1.25 µM (≈ 1.03 µg/mL); MIC [3, 9]: 2.5 µM (≈ 2.07 µg/mL); MIC [4, 10]: 0.625 µM (≈ 0.516 µg/mL)
Cc1ccc(NC(=O)N[C@@H](Cc2cccc(C)c2)C(=O)N[C@@H]2C(=O)N3C[C@H](O)C[C@H]3C(=O)N3CCCC[C@H]3C(=O)N[C@@H](C)C(=O)N3CCC[C@H]3C(=O)O[C@H]2C)cc1 [Compound 51, (S)—N-((6S,8AS,14AS,16R,20S,21S,23AS)-16-HYDROXY-6,21-DIMETHYL-5,8,14,19,23-PENTAOXOOCTADECAHYDRO-1H,5H,14H,19H-PYRIDO[2,1-I]DIPYRROLO[2,1-C:2′,1′-L][1]OXA[4,7,10,13]TETRAAZACYCLOHEXADECIN-20-YL)-3-(M-TOLYL)-2-(3-(P-TOLYL)UREIDO)PROPANAMIDE] ({NH(4-Me-phenyl)-CO}-[Phe(3-Me)][aThr][Hyp][Pip]AP; ester 2-C) | >20 | 2.5 (≈ 1.97 µg/mL) | 5 (≈ 3.94 µg/mL) | 5 (≈ 3.94 µg/mL) | 5 (≈ 3.94 µg/mL) |  | 
Cc1cccc(C[C@H](NC(=O)Nc2ccc(Cl)cc2)C(=O)N[C@@H]2C(=O)N3C[C@H](O)C[C@H]3C(=O)N3CCCC[C@H]3C(=O)N[C@@H](C)C(=O)N3CCC[C@H]3C(=O)O[C@H]2C)c1 [Compound 59, (S)-2-(3-(4-CHLOROPHENYL)UREIDO)-N-((6S,8AS,14AS,16R,20S,21S,23AS)-16-HYDROXY-6,21-DIMETHYL-5,8,14,19,23-PENTAOXOOCTADECAHYDRO-1H,5H,14H,19H-PYRIDO[2,1-I]DIPYRROLO[2,1-C:2′,1′-L][1]OXA[4,7,10,13]TETRAAZACYCLOHEXADECIN-20-YL)-3-(M-TOLYL)PROPANAMIDE] ({NH(4-Cl-phenyl)-CO}-[Phe(3-Me)][aThr][Hyp][Pip]AP; ester 2-C) |  | 1.25 (≈ 1.01 µg/mL) | 1.25 (≈ 1.01 µg/mL) | 5 (≈ 4.04 µg/mL) | 2.5 (≈ 2.02 µg/mL) | 810 ± 500 | 
Cc1cccc(C[C@H](NC(=O)Nc2cccc(Cl)c2)C(=O)N[C@H]2COC(=O)[C@@H]3C[C@@H](C)CN3C(=O)[C@H](C)NC(=O)[C@@H]3CCCCN3C(=O)[C@@H]3CCCN3C2=O)c1 [Compound 72, (S)-2-(3-(3-CHLOROPHENYL)UREIDO)-N-((2R,6S,8AS,14AS,20S,23AS)-2,6-DIMETHYL-5,8,14,19,23-PENTAOXOOCTADECAHYDRO-1H,5H,14H,19H-PYRIDO[2,1-I]DIPYRROLO[2,1-C:2′,1′-L][1]OXA[4,7,10,13]TETRAAZACYCLOHEXADECIN-20-YL)-3-(M-TOLYL)PROPANAMIDE] | >20 | 2.5 (≈ 1.98 µg/mL) | 2.5 (≈ 1.98 µg/mL) | 10 (≈ 7.92 µg/mL) | 2.5 (≈ 1.98 µg/mL) |  | 
Cc1cccc(C[C@H](NC(=O)Nc2ccc(Cl)cc2Cl)C(=O)N[C@@H]2C(=O)N3C[C@H](O)C[C@H]3C(=O)N3CCCC[C@H]3C(=O)N[C@@H](C)C(=O)N3C[C@H](C)C[C@H]3C(=O)O[C@H]2C)c1 [Compound 78, (S)-2-(3-(2,4-DICHLOROPHENYL)UREIDO)-N-((2R,6S,8AS,14AS,16R,20S,21S,23AS)-16-HYDROXY-2,6,21-TRIMETHYL-5,8,14,19,23-PENTAOXOOCTADECAHYDRO-1H,5H,14H,19H-PYRIDO[2,1-I]DIPYRROLO[2,1-C:2′,1′-L][1]OXA[4,7,10,13]TETRAAZACYCLOHEXADECIN-20-YL)-3-(M-TOLYL)PROPANAMIDE] ({X7-CO}-[Phe(3-Me)][aThr][Hyp][Pip]A[Pro(4R-Me)]; ester 2-C) |  |  |  |  |  | 330 ± 100 | 
Cc1cccc(C[C@H](NC(=O)Nc2ccc(F)cc2)C(=O)N[C@@H]2C(=O)N3C[C@H](O)C[C@H]3C(=O)N3CCCC[C@H]3C(=O)N[C@@H](C)C(=O)N3C[C@H](C)C[C@H]3C(=O)O[C@H]2C)c1 [Compound 79, (S)-2-(3-(4-FLUOROPHENYL)UREIDO)-N-((2R,6S,8AS,14AS,16R,20S,21S,23AS)-16-HYDROXY-2,6,21-TRIMETHYL-5,8,14,19,23-PENTAOXOOCTADECAHYDRO-1H,5H,14H,19H-PYRIDO[2,1-I]DIPYRROLO[2,1-C:2′,1′-L][1]OXA[4,7,10,13]TETRAAZACYCLOHEXADECIN-20-YL)-3-(M-TOLYL)PROPANAMIDE] ({NH(4-F-phenyl)-CO}-[Phe(3-Me)][aThr][Hyp][Pip]A[Pro(4R-Me)]; ester 2-C) |  |  |  |  |  | 900 ± 600 | 
Cc1cccc(C[C@H](NC(=O)Nc2ccccc2F)C(=O)N[C@@H]2C(=O)N3C[C@H](O)C[C@H]3C(=O)N3CCCC[C@H]3C(=O)N[C@@H](C)C(=O)N3C[C@H](C)C[C@H]3C(=O)O[C@H]2C)c1 [Compound 80, (S)-2-(3-(2-FLUOROPHENYL)UREIDO)-N-((2R,6S,8AS,14AS,16R,20S,21S,23AS)-16-HYDROXY-2,6,21-TRIMETHYL-5,8,14,19,23-PENTAOXOOCTADECAHYDRO-1H,5H,14H,19H-PYRIDO[2,1-I]DIPYRROLO[2,1-C:2′,1′-L][1]OXA[4,7,10,13]TETRAAZACYCLOHEXADECIN-20-YL)-3-(M-TOLYL)PROPANAMIDE] ({NH(2-F-phenyl)-CO}-[Phe(3-Me)][aThr][Hyp][Pip]A[Pro(4R-Me)]; ester 2-C) |  |  |  |  |  | 590 ± 400 | 

Reference: patent US10570179B2, “Substituted urea depsipeptide analogs as activators of the CLPP endopeptidase” (priority 2016, dated 2020)
